Residues, ends and D or L forms follow the SMILES beside them. *: point of attachment. Cbz = O=C(OCc1ccccc1)*
Key:
[1] = tested on: chaperone, CHOP and GC mRNA expression levels; assay: Quantitative RT-PCR in L444P GC fibroblasts; format: cell-based, human
Excerpt: The relative mRNA expression levels of representative cytoplasmic HSR-associated chaperones (Hsp40, Hsp70, Hsp90, Hsp27, αB-crystallin), ER lumenal UPR-associated chaperones (BiP, GRP94, calreticulin), and the ER chaperone calnexin were monitored and their reported levels were normalized to the levels in untreated cells (FIGS. 5A and B). The levels of glyceraldehyde-3-phosphate dehydrogenase, monitored as a housekeeping control, were unchanged in treated and untreated cells.
Quantitative RT-PCR. […] The forward and reverse primers for Hsp40, Hsp70, Hsp90, Hsp27, αB-crystallin (CRYAB), BiP, GRP94, calnexin (CNX), calreticulin (CRT), Xbp-1, and CHOP, and an endogenous housekeeping gene GAPDH are listed in Table 2. […] Each data point was evaluated in triplicate, and measured three times.

L444P GC [2] = format: cell-based, human; conditions: MG-132 0.25 μM for 3 d; diltiazem 10 μM for 14 days
Excerpt: (§1) Immunofluorescence. Immunofluorescence has been previously described.
as §1

[3] = tested on: Hsp70, HSF1, BiP, Hsp40, Hsp90; assay: Western blot of chaperone and HSF1 protein levels in L444P GC fibroblasts; format: cell-based, human
Method: To correlate changes in Hsp70 chaperone levels with the celastrol-mediated transcriptional increase in Hsp70, as well as to investigate the temporal dependence of the change in Hsp70 levels, L444P GC fibroblasts were subjected to a single celastrol exposure (0.8 μM) for the period indicated and Hsp70 expression levels in cell lysates were analyzed by Western blot analysis. […] Hsp70, a product of HSR activation, has been implicated in HSR autoregulation by binding to HSF1, thereby repressing heat shock gene transcription (FIG. 7). Morimoto, Genes Dev 12: 3788-3796, 1998; Westerheide et al., J Biol Chem 280: 33097-33100, 2005.
Since HSF1 is likely to be responsible for celastrol's induction of the HSR we monitored HSF1 levels. Westerheide et al., J Biol Chem 279: 56053-56060, 2004. […] Awasthi, et al., Invest Opthalmol Vis Sci 46: 2082-2091, 2005; Bush et al., J Biol Chem 272: 9086-9092, 1997.
Western blot analyses. […] Total cell protein was determined with Micro BCA assay reagent (Pierce, Rockford, Ill.) and each sample was diluted to the same protein concentration. […] The western blot bands of the endoH treated samples were quantified by Java Image processing and analysis software from the NIH (http://rsb.info.nih.gov/ij/).
Western blot. […] Total cell protein was measured using the Micro BCA assay reagent. […]

L444P GC [4] = target: T1, L444P GC (Homo sapiens, UniProt P04062, L483P); assay: GC activity assay in L444P GC Gaucher patient-derived fibroblasts; format: cell-based
T1 construct: a L444P GC Gaucher fibroblast cell line (GM08760); host or cells: Gaucher patient-derived skin fibroblasts
T1 sequence (P04062 40-536 L483P): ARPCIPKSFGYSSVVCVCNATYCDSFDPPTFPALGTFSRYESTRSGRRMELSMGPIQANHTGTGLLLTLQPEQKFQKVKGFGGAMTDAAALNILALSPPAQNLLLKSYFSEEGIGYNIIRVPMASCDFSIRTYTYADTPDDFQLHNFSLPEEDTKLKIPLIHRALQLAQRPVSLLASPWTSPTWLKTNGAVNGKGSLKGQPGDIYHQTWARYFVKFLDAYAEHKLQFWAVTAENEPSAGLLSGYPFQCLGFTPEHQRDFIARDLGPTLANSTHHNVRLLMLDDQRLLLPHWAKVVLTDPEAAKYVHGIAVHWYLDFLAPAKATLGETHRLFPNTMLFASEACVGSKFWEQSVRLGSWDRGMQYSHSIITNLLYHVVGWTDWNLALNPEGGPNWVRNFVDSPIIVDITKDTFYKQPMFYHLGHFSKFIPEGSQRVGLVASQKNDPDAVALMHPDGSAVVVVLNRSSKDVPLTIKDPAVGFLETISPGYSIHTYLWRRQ

[5] = diltiazem 10 μM, 7-day treatment

Row | direct activation of lysosomal L444P GC (L444P GC [4]; 1 μM to 100 μM, 1 h, intact cell assay) | L444P GC activity as % of normal cellular WT GC activity (L444P GC [4]; diltiazem 10 μM, 5-day incubation, type II line (FIG. 17C, left panel)) | Structure (SMILES) | mRNA expression levels of Hsp70, GRP94, calnexin, and calreticulin [1, 5] | GC mRNA expression level vs untreated cells ([1]; diltiazem 10 μM, 6 h, 12 h, 1 day, 3 days and 5 days) | colocalization of L444P GC with lysosomal marker LAMP2 (L444P GC [2]) | protein expression levels of BiP, Hsp40, and Hsp90 [3, 5] | effect on L444P GC activity, intact cell GC activity assay (L444P GC [4]; calcium channel blockers and ionotropic glutamate receptor inhibitors) | transcription of Hsp27 ([1]; 0.8 μM, 24 h) | transcription of calnexin ([1]; 0.8 μM, 24 h) | mRNA expression level of BiP ([1]; 0.8 μM, 2, 4, 6 and 24 h) | mRNA expression level of CHOP ([1]; 0.8 μM, 2, 4, 6 and 24 h) | HSF1 protein levels ([3]; 0.8 μM, over 24 h) | L444P GC activity as % of WT GC activity (L444P GC [4]; MG-132 single exposure, after 120 h (FIG. 2A))
1 | No activity increase was observed | ≈ 24% | COc1ccc([C@@H]2Sc3ccccc3N(CCN(C)C)C(=O)[C@@H]2OC(C)=O)cc1.Cl [diltiazem, Diltiazem hydrochloride] | not changed significantly | No significant differences | L444P GC colocalized with LAMP2 | increased protein expression levels | increased L444P GC activity significantly | – | – | – | – | – | –
2 | – | – | CC(C)C[C@@H](C=O)NC(=O)[C@H](CC(C)C)NC(=O)[C@H](CC(C)C)NC(=O)OCc1ccccc1 [MG-132] (Cbz-Leu-Leu-Leu-aldehyde) | – | – | exhibited colocalization with the lysosomal marker LAMP2 | – | – | did not | upregulated the transcription of calnexin significantly | BiP was also upregulated | upregulated the mRNA expression level of CHOP significantly | remained constant | ≈ 50.0%
